# Active and inactive are the calls of the source. No cut-off for these calls is given here.
# What was measured:
# [1] = biological target: Methionine aminopeptidase 2 (Homo sapiens, UniProt P50579); experiment: Biochemical activity-MetAP2 using Co
# [2] = tested on: Tyrosine-protein kinase ABL1 (Homo sapiens), P00519 [E255K]; conditions: Compound concentration 1000.0 nM
# [3] = tested on: Tyrosine-protein kinase ABL1 (Homo sapiens), P00519 [Q252H]; conditions: Compound concentration 1000.0 nM
# [4] = tested on: Tyrosine-protein kinase ABL1 (Homo sapiens), P00519 [T315I]; conditions: Compound concentration 1000.0 nM
# [5] = biological target: Bone morphogenetic protein receptor type-2 (Homo sapiens) (UniProt Q13873); conditions: Compound concentration 1000.0 nM
# [6] = biological target: Serine/threonine-protein kinase BRSK1 (Homo sapiens) (UniProt Q8TDC3); conditions: Compound concentration 1000.0 nM
# [7] = biological target: Serine/threonine-protein kinase BRSK2 (Homo sapiens) (UniProt Q8IWQ3); conditions: Compound concentration 1000.0 nM
# Serine/threonine-protein kinase BRSK2 (Homo sapiens), sequence (Q8IWQ3 whole entry): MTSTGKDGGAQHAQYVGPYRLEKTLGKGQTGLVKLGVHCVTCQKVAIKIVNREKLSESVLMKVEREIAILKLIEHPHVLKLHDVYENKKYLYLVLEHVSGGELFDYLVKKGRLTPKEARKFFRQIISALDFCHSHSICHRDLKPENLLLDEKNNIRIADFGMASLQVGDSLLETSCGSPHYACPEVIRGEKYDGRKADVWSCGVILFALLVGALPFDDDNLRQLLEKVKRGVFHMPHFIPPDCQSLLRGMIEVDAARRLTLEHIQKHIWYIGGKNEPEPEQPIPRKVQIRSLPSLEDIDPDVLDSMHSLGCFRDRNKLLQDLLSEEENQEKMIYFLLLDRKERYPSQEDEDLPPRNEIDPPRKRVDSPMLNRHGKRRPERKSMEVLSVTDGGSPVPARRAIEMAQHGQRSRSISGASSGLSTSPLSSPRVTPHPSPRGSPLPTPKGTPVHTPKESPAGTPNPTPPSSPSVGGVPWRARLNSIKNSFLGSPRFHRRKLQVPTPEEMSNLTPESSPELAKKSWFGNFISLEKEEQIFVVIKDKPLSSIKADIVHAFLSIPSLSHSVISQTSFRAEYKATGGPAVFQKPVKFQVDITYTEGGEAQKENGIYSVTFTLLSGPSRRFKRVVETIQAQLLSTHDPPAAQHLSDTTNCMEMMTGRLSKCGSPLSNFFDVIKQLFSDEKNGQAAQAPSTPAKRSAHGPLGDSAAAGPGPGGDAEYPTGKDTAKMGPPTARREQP
# [8] = biological target: Calcium/calmodulin-dependent protein kinase type II subunit gamma (Homo sapiens) (UniProt Q13555); conditions: Compound concentration 1000.0 nM
# [9] = biological target: Calcium/calmodulin-dependent protein kinase kinase 1 (Homo sapiens) (UniProt Q8N5S9); conditions: Compound concentration 1000.0 nM
# Calcium/calmodulin-dependent protein kinase kinase 1 (Homo sapiens), sequence (Q8N5S9 whole entry, looked up): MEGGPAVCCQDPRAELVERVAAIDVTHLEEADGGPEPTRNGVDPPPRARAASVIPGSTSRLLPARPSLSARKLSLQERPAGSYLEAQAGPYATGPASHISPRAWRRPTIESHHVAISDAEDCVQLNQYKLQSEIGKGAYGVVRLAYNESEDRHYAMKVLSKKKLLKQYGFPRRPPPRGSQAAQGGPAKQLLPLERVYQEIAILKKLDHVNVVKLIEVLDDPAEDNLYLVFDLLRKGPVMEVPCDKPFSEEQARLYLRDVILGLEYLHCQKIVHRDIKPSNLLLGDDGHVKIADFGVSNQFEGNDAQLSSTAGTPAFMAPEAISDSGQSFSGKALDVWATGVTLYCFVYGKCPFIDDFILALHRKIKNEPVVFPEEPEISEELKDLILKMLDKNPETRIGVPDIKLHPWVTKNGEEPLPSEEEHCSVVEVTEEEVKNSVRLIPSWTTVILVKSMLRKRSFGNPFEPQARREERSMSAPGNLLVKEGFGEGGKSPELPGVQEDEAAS
# [10] = biological target: Cyclin-dependent kinase 5 (Homo sapiens) (UniProt Q00535); conditions: Compound concentration 1000.0 nM
# Cyclin-dependent kinase 5 (Homo sapiens), sequence (Q00535 whole entry, looked up): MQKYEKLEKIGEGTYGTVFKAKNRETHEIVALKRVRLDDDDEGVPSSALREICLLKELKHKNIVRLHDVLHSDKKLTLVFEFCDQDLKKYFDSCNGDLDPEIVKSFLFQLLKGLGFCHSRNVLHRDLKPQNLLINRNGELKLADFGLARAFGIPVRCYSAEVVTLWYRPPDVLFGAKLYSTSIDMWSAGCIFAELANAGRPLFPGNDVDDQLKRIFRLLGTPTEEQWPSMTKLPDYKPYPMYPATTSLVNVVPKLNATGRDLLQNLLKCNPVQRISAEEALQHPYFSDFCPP
# [11] = biological target: Tyrosine-protein kinase CSK (Homo sapiens) (UniProt P41240); conditions: Compound concentration 1000.0 nM
# [12] = biological target: Serine/threonine-protein kinase DCLK1 (Homo sapiens) (UniProt O15075); conditions: Compound concentration 1000.0 nM
# [13] = biological target: Discoidin domain-containing receptor 2 (Homo sapiens) (UniProt Q16832); conditions: Compound concentration 1000.0 nM
# [14] = biological target: Myotonin-protein kinase (Homo sapiens) (UniProt Q09013); conditions: Compound concentration 1000.0 nM
# [15] = tested on: Receptor-type tyrosine-protein kinase FLT3 (Homo sapiens), P36888 [UNDEFINED MUTATION]; conditions: Compound concentration 1000.0 nM
# [16] = biological target: Receptor-type tyrosine-protein kinase FLT3 (Homo sapiens) (UniProt P36888); conditions: Compound concentration 1000.0 nM
# [17] = biological target: Rhodopsin kinase GRK1 (Homo sapiens) (UniProt Q15835); conditions: Compound concentration 1000.0 nM
# [18] = biological target: Inhibitor of nuclear factor kappa-B kinase subunit alpha (Homo sapiens) (UniProt O15111); conditions: Compound concentration 1000.0 nM
# [19] = biological target: Mitogen-activated protein kinase 8 (Homo sapiens) (UniProt P45983); conditions: Compound concentration 1000.0 nM
# [20] = biological target: LIM domain kinase 1 (Homo sapiens) (UniProt P53667); conditions: Compound concentration 1000.0 nM
# [21] = biological target: Mitogen-activated protein kinase kinase kinase 1 (Homo sapiens) (UniProt Q13233); conditions: Compound concentration 1000.0 nM
# [22] = biological target: Mitogen-activated protein kinase kinase kinase 4 (Homo sapiens) (UniProt Q9Y6R4); conditions: Compound concentration 1000.0 nM
# [23] = tested on: Hepatocyte growth factor receptor (Homo sapiens), P08581 [Y1235D]; conditions: Compound concentration 1000.0 nM
# [24] = biological target: Serine/threonine-protein kinase 24 (Homo sapiens) (UniProt Q9Y6E0); conditions: Compound concentration 1000.0 nM
# [25] = biological target: Serine/threonine-protein kinase 38 (Homo sapiens) (UniProt Q15208); conditions: Compound concentration 1000.0 nM
# [26] = biological target: Platelet-derived growth factor receptor beta (Homo sapiens) (UniProt P09619); conditions: Compound concentration 1000.0 nM
# Platelet-derived growth factor receptor beta (Homo sapiens), sequence (P09619 whole entry): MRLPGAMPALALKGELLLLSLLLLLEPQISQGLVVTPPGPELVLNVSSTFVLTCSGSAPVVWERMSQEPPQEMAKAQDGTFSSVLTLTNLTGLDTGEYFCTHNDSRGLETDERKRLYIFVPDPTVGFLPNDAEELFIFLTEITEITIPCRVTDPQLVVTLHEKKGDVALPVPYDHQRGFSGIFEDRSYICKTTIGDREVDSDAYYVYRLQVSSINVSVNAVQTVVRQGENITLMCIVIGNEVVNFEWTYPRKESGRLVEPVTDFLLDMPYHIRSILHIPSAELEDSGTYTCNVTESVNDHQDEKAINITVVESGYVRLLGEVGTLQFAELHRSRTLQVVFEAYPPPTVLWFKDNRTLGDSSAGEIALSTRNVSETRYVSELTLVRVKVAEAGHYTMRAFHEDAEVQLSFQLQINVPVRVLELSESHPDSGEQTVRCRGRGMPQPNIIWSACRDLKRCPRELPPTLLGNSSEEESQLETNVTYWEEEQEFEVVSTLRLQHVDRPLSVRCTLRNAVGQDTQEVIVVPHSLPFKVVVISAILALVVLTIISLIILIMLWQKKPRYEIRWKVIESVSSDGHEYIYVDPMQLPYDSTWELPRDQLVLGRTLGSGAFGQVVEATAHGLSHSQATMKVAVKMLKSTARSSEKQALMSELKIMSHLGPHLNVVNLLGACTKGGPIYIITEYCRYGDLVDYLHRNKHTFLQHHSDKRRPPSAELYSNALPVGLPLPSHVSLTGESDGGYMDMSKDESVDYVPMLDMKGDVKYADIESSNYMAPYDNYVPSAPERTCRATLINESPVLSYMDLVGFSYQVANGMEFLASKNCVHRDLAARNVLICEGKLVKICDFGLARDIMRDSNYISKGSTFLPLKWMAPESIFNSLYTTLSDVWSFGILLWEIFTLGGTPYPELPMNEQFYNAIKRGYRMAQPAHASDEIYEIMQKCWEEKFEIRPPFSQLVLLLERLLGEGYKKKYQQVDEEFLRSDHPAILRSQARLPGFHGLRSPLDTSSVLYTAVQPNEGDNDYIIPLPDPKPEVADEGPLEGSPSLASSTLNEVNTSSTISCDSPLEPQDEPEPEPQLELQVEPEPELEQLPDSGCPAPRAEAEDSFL
# [27] = biological target: Cyclin-dependent kinase 14 (Homo sapiens) (UniProt O94921); conditions: Compound concentration 1000.0 nM
# [28] = biological target: Phosphatidylinositol 4,5-bisphosphate 3-kinase catalytic subunit gamma isoform (Homo sapiens) (UniProt P48736); conditions: Compound concentration 1000.0 nM
# [29] = biological target: Serine/threonine-protein kinase pim-2 (Homo sapiens) (UniProt Q9P1W9); conditions: Compound concentration 1000.0 nM
# Serine/threonine-protein kinase pim-2 (Homo sapiens), sequence (Q9P1W9 whole entry, looked up): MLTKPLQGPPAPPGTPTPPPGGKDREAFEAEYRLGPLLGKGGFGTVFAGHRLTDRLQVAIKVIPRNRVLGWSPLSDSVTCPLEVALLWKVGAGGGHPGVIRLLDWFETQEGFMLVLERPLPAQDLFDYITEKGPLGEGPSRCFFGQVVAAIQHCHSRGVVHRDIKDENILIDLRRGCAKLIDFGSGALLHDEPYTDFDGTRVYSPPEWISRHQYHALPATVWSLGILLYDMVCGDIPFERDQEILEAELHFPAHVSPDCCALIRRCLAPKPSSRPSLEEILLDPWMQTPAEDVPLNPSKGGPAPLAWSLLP
# [30] = biological target: Serine/threonine-protein kinase PLK3 (Homo sapiens) (UniProt Q9H4B4); conditions: Compound concentration 1000.0 nM
# [31] = biological target: Protein kinase C delta type (Homo sapiens) (UniProt Q05655); conditions: Compound concentration 1000.0 nM
# [32] = biological target: Protein kinase C iota type (Homo sapiens) (UniProt P41743); conditions: Compound concentration 1000.0 nM
# Protein kinase C iota type (Homo sapiens), sequence (P41743 whole entry): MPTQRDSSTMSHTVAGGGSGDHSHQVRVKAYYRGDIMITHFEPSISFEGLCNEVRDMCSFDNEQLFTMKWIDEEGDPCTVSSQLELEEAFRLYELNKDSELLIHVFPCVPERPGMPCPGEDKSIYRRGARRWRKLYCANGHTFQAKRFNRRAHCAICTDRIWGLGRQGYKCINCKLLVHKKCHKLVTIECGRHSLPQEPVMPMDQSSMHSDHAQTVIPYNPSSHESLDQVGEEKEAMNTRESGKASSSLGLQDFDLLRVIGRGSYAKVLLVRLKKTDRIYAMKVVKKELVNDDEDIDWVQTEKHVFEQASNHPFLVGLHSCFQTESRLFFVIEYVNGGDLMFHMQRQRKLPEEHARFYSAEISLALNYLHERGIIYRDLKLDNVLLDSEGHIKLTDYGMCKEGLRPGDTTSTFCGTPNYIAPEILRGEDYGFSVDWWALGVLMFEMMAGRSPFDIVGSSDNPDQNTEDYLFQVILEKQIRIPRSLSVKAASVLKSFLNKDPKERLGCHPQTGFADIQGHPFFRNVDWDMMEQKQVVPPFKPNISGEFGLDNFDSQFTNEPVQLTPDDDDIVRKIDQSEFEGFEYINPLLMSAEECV
# [33] = biological target: Serine/threonine-protein kinase PRP4 homolog (Homo sapiens) (UniProt Q13523); conditions: Compound concentration 1000.0 nM
# [34] = biological target: Proto-oncogene tyrosine-protein kinase ROS (Homo sapiens) (UniProt P08922); conditions: Compound concentration 1000.0 nM
# [35] = biological target: Ribosomal protein S6 kinase alpha-3 (Homo sapiens) (UniProt P51812); conditions: Compound concentration 1000.0 nM
# [36] = biological target: Serine/threonine-protein kinase Sgk1 (Homo sapiens) (UniProt O00141); conditions: Compound concentration 1000.0 nM
# [37] = biological target: Serine/threonine-protein kinase Sgk2 (Homo sapiens) (UniProt Q9HBY8); conditions: Compound concentration 1000.0 nM
# Serine/threonine-protein kinase Sgk2 (Homo sapiens), sequence (Q9HBY8 whole entry): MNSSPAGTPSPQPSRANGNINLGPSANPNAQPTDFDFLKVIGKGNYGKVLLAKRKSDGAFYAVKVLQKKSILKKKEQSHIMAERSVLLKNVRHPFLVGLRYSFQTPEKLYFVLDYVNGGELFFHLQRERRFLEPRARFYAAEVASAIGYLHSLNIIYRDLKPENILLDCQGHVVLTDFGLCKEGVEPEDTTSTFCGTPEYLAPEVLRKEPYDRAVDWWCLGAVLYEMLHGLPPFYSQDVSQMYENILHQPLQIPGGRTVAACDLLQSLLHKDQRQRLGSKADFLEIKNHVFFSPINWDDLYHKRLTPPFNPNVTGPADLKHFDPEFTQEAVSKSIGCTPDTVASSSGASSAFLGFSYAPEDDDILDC
# [38] = biological target: Serine/threonine-protein kinase TAO2 (Homo sapiens) (UniProt Q9UL54); conditions: Compound concentration 1000.0 nM
# [39] = biological target: Tyrosine-protein kinase Tec (Homo sapiens) (UniProt P42680); conditions: Compound concentration 1000.0 nM
# [40] = biological target: TRAF2 and NCK-interacting protein kinase (Homo sapiens) (UniProt Q9UKE5); conditions: Compound concentration 1000.0 nM
# [41] = biological target: NT-3 growth factor receptor (Homo sapiens) (UniProt Q16288); conditions: Compound concentration 1000.0 nM
# [42] = biological target: 5-hydroxytryptamine receptor 1A (Homo sapiens) (UniProt P08908); conditions: Compound concentration 10.0 uM
# [43] = biological target: D(4) dopamine receptor (Homo sapiens) (UniProt P21917); conditions: Compound concentration 10.0 uM
# D(4) dopamine receptor (Homo sapiens), sequence (P21917 whole entry): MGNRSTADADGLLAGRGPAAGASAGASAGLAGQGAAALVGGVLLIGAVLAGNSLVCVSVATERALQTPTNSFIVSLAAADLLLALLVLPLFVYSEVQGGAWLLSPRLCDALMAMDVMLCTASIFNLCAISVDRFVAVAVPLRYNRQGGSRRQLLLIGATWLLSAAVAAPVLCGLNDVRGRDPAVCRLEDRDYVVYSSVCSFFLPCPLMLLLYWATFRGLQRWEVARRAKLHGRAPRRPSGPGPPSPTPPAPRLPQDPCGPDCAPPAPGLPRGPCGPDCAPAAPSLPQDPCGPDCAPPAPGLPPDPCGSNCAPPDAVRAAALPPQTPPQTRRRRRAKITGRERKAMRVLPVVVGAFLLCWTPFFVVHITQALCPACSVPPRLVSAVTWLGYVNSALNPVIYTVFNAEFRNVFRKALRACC
# [44] = biological target: Kappa-type opioid receptor (Homo sapiens) (UniProt P41145); conditions: Compound concentration 10.0 uM
# [45] = biological target: Muscarinic acetylcholine receptor M2 (Homo sapiens) (UniProt P08172); conditions: Compound concentration 10.0 uM
# Methionine aminopeptidase 2, sequence (P50579 whole entry): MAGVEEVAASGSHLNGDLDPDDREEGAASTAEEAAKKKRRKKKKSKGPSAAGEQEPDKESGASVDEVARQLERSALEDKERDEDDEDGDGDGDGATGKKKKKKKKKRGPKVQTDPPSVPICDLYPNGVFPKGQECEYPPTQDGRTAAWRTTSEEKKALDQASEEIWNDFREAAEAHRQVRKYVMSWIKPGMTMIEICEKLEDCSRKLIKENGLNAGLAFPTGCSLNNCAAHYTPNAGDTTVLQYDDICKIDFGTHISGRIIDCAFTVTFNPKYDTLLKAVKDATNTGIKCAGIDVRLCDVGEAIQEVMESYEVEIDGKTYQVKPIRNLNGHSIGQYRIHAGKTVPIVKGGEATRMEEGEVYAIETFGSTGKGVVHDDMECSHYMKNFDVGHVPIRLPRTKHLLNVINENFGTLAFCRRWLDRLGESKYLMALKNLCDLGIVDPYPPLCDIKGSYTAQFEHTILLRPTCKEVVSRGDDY
compound,measurement,setting,value
Cc1nc(N2CC[C@@H](O)C2)ncc1-c1cc(C(F)(F)F)cc2[nH]ncc12 [TP-004],IC50,[1],31 nM (active)
same,residual activity,[2],77%
same,residual activity,[3],79%
same,residual activity,[4],78%
same,residual activity,[5],81%
same,residual activity,[6],100%
same,residual activity,[7],90%
same,residual activity,[8],100%
same,residual activity,[9],100%
same,residual activity,[10],99%
same,residual activity,[11],100%
same,residual activity,[12],100%
same,residual activity,[13],75%
same,residual activity,[14],80%
same,residual activity,[15],69%
same,residual activity,[16],87%
same,residual activity,[17],52%
same,residual activity,[18],76%
same,residual activity,[19],100%
same,residual activity,[20],85%
same,residual activity,[21],60%
same,residual activity,[22],100%
same,residual activity,[23],81%
same,residual activity,[24],100%
same,residual activity,[25],95%
same,residual activity,[26],58%
same,residual activity,[27],100%
same,residual activity,[28],82%
same,residual activity,[29],89%
same,residual activity,[30],78%
same,residual activity,[31],94%
same,residual activity,[32],100%
same,residual activity,[33],100%
same,residual activity,[34],86%
same,residual activity,[35],58%
same,residual activity,[36],49%
same,residual activity,[37],88%
same,residual activity,[38],100%
same,residual activity,[39],84%
same,residual activity,[40],100%
same,residual activity,[41],66%
same,inhibition,[42],20%
same,inhibition,[43],7.69%
same,inhibition,[44],7.69%
same,inhibition,[45],-8.94%

# From ChEMBL document CHEMBL4507303, “Data for DCP probe TP-004” (2021)
